Experiments:
[1] = 101 kPa, Liquid; for speed of sound: Frequency=1.5 MHz, Sing-around technique in a fixed-path interferometer; for mass density: Vibrating tube method
[2] = refractive index (Na D-line) (dimensionless); details: 101 kPa, Liquid, Standard Abbe refractometry

CCCCO [butan-1-ol]
Details | mass density, [1] [kg/m3] | refractive index, [2] | speed of sound, [1] [m/s]
303.15 K | 802.01 | 1.3948 | 1222.7
308.15 K | 798.14 | 1.3927 | 1206.3
313.15 K | 794.22 | 1.3907 | 1189.4
318.15 K | 790.28 | 1.3875 | 1172.8
323.15 K | 786.29 | 1.3848 | 1156.7
